Experimental data as given in US20230380419A1, “NANOCOMPOSITE COMPOSITIONS COMPRISING MULTI-VALENT METAL MATERIAL AND IMMOBILIZED QUAT MATERIAL, METHODS OF MAKING THE COMPOSITIONS AND METHODS OF USING THE COMPOSITIONS” (UNIVERSITY OF CENTRAL FLORIDA RESEARCH FOUNDATION, INC., priority 2015, published 2023).

How the values were obtained:
X. alfalfae = experiment: Minimum Inhibitory Concentration (MIC) assay, broth microdilution and alamar blue; type: cell-based; details: single-active controls; 24 hours incubation
Procedure: Although not depicted in the figures, the antimicrobial properties of LSP materials and components were studied using standard microbiological technique to determine the Minimum Inhibitory Concentration (MIC). Samples were tested against Gram-negative Xanthomonas alfalfae subsp. citrumelonis strain F1 (ATCC 49120, a citrus canker surrogate), Gram-negative Pseudomonas syringae pv. syringae (ATCC 19310, causative agent of bacterial speck in Lilac, almond, apricots, peaches and wild beans among others) and Gram positive Clavibacter michiganensis subsp. michiganensis (ATCC 10202, causative agent of bacterial wilt and canker in Tomato sp). X. alfalfae and P. syringae were maintained with nutrient agar and broth while C. michiganensis was grown with brain heart infusion (BHI) media. All bacteria were grown at 26° C. in a shaking incubator (150 rpm).
Minimum Inhibitory Concentration (MIC) Assay
MIC was determined using two different methods: • a. Broth microdilution: Protocols as delineated by the Clinical and Laboratory Standards Institute (CLSI) were followed for conducting MIC studies to be in compliance with American Society of Microbiology guidelines. […] Since broth microdilution is based only on light absorbance, low concentration of bacteria can fall below the detection limit of the traditional optical density measurement. […]

E. coli = experiment: as above; type: cell-based; details: single-active controls; 24 hours incubation

Row | Structure (SMILES) | MIC X. alfalfae (X. alfalfae) | MIC E. coli (E. coli)
1 | O=S(=O)([O-])[O-].[Cu+2] [CuSO4] | 125-250 μg active/mL | 250-500 μg active/mL
2 | CCCCCCCCCC[N+](C)(C)CCCCCCCCCC.[Cl-] [Quat, Didecyl Dimethyl Ammonium Chloride] | 2-4 μg active/mL | 2-4 μg active/mL
